The subject of the first experiment is F11 cells (rat dorsal root ganglion neuron cell line). As to the kind of experiment: Effect of decreasing intracellular actin filaments in F11 cells with oxaliplatin-induced axonal injury (phalloidin staining). The experiment is classed as cell-based. Conditions: F-11 rat/mouse fusion cell line, F11, 120 h, compound 10 μM with oxaliplatin 15 μM, 5 days; compared to oxaliplatin alone treated group; average of five samples; read-out: Decreasing Rate of Intracellular Actin Filament (%). The source says:
The effect of the cyclic amine derivative (I) or a pharmacologically acceptable salt thereof on the amount of intracellular actin filaments in F11 cells (rat dorsal root ganglion neuron cell line) was examined.
As test compounds, the compounds of Examples 1, 2, 3, 4, 5, 6, 7, 8, and 9 were used.
As compounds of comparative examples, 1-(4-(dimethylamino)piperidin-1-yl)-3-(1-ethyl-1H-imidazol-2-yl)-3-hydroxypropan-1-one (hereinafter, the compound of Comparative Example 1), 1-(4-(dimethylamino)piperidin-1-yl)-3-hydroxy-3-(1-(2,2,2-trifluoroethyl)-1H-imidazol-2-yl)propan-1-one (hereinafter, the compound of Comparative Example 2), 1-((R)-3-(dimethylamino)pyrrolidin-1-yl)-3-hydroxy-3-(1-methyl-1H-imidazol-2-yl)propan-1-one (hereinafter, the compound of Comparative Example 3), and 1-((R)-[…]-3-hydroxy-3-(1-methyl-1H-imidazol-2-yl)propan-1-one (hereinafter, the compound of Comparative Example 4) shown in Table 4 were used. The compounds of Comparative Examples 1, 2, 3, and 4 were synthesized in accordance with methods described in International Publication No. WO2016/136944.
For peeling the F11 cells off from a culture flask, 0.25% Trypsin/EDTA (manufactured by Thermo Fisher Scientific K.K.) was added to the cells, followed by incubation at room temperature for several minutes. Thereafter, 10% fetal bovine serum-containing DMEM medium (manufactured by Thermo Fisher Scientific K.K.) was added thereto for suspension, and the resultant centrifuged at 1,500 rpm for 1 minute. After removing the resultant centrifugal supernatant, 0.5% fetal bovine serum-containing DMEM medium was added thereto for suspending cells therein, and the resultant seeded in a poly-D-lysine-coated 96 well plate (manufactured by BD Biosciences) coated with laminin (2 μg/cm^2, manufactured by Sigma Aldrich) to be cultured at 37° C. under an environment of 5% CO2. Two hours after seeding the cells, N,N-dibutyladenosine 3′,5′-phosphate (final concentration 1 mM, manufactured by Sigma Aldrich) and recombinant rat GDNF (final concentration 50 ng/mL, manufactured by PeproTech) were added thereto to culture the cells at 37° C. under an environment of 5% CO2 for 7 days for differentiation.
Seven days after starting the culture, the medium was exchanged with 0.5% fetal bovine serum-containing DMEM medium containing oxaliplatin (final concentration 15 μM), and the resultant cultured for 5 days to induce axonal injury. Each of the compounds of Examples and Comparative Examples was caused to be contained in the medium (final concentration 10 μM) for treatment in the same manner as oxaliplatin.
Five days after treatment with oxaliplatin and each of the compounds, the resultant cells were washed with PBS(−) three times, a 4% paraformaldehyde-phosphate buffer (manufactured by Wako Pure Chemical Industries Ltd.) was added thereto, and the resultant allowed to stand still at room temperature for 10 minutes to fix the cells. Acti-stain 670 phalloidin (manufactured by Cytoskeleton Inc.) was added thereto, and the resultant incubated at room temperature for 30 minutes to stain actin filaments. An image of the cells was acquired using IN Cell Analyzer 2200 (manufactured by GE Healthcare), and the image analyzed using IN Cell Investigator Developer Toolbox. The amount of intracellular actin filaments was indicated by the amount of fluorescence (density) of fluorescent-labeled phalloidin binding to the actin filaments.
In a group treated with oxaliplatin alone (hereinafter, the oxaliplatin alone treated group), the amount of intracellular actin filaments increased by 5% compared to that in a group not treated with oxaliplatin. […] A decreasing rate of intracellular actin filaments, caused by each compound compared to the amount of intracellular actin filaments of the oxaliplatin alone treated group was calculated. […]
Turning to `CN(C)C1CCN(C(=O)CC(O)c2nccn2CC(F)(F)F)CC1` (stereo not shown) [Comparative Example 2, 1-(4-(dimethylamino)piperidin-1-yl)-3-hydroxy-3-(1-(2,2,2-trifluoroethyl)-1H-imidazol-2-yl)propan-1-one, reference compound], the inhibition at 10 µM was at most 5%. As for `COCCn1ccnc1C(O)CC(=O)N1CCC(N(C)C)CC1` (stereo not shown) [Example 5, 1-(4-(dimethylamino)piperidin-1-yl)-3-(1-(2-methoxyethyl)-1H-imidazol-2-yl)-3-hydroxypropan-1-one], the inhibition at 10 µM is at least 5%. Same read-out and setting: for `Cn1ccnc1C(O)CC(=O)N1CCC(N2CCOCC2)CC1` (stereo not shown) [Example 1, 3-hydroxy-3-(1-methyl-1H-imidazol-2-yl)-1-(4-morpholinopiperidin-1-yl)propan-1-one] the value was at least 5%. The same measure, in the same setting: for `CN1CCN(C2CCN(C(=O)CC(O)c3nccn3C)CC2)CC1` (stereo not shown) [Example 8, 3-hydroxy-3-(1-methyl-1H-imidazol-2-yl)-1-(4-(4-methylpiperazin-1-yl)piperidin-1-yl)propan-1-one] the value was at least 5%; for `CC(C)n1ccnc1C(O)CC(=O)N1CCC(N(C)C)CC1` (stereo not shown) [Example 3, 1-(4-(dimethylamino)piperidin-1-yl)-3-(1-isopropyl-1H-imidazol-2-yl)-3-hydroxypropan-1-one], at least 5%; for `CN(C)[C@@H]1CCCN(C(=O)CC(O)c2nccn2C)C1` (stereo partly shown) [Comparative Example 4, reference compound], at most 5%. The same measure, in the same setting: for `CN(C)C1CCN(C(=O)CC(O)c2ncc(Cl)n2C)CC1` (stereo not shown) [Example 4, 3-(5-chloro-1-methyl-1H-imidazol-2-yl)-1-(4-(dimethylamino)piperidin-1-yl)-3-hydroxypropan-1-one] the value was at least 5%; for `CN(C)C1CCN(C(=O)CC(O)c2nccn2CCC(F)(F)F)CC1` (stereo not shown) [Example 6, 1-(4-(dimethylamino)piperidin-1-yl)-3-(1-(3,3,3-trifluoropropyl)-1H-imidazol-2-yl)-3-hydroxypropan-1-one], at least 5%.

The same experiment, now with this note: oxaliplatin alone 15 μM, 5 days; p<0.05.
For `O=C1[O][Pt]2([NH][C@@H]3CCCC[C@H]3[NH]2)[O]C1=O` [oxaliplatin, reference compound], the “increase of the amount of intracellular actin filaments compared to a group not treated with oxaliplatin” value is given as 5%.

The test system of the next experiment is primary cultured cells of rat dorsal root ganglion. Kind of experiment: Axon (neurite) extension in primary cultured cells of rat dorsal root ganglion with oxaliplatin-induced axonal injury. The following applies: oxaliplatin alone 3 μM, 7 days; p<0.05. The format is cell-based. The source says: The effect of the cyclic amine derivative (I) or a pharmacologically acceptable salt thereof on neurite extension in primary cultured cells of rat dorsal root ganglion was examined.
Male SD rats (manufactured by Charles River Laboratories Japan, Inc.) of 4 to 7 weeks old were used. Each rat was anesthetized by intraperitoneally administering urethane. After confirming that the rat was anesthetized, the rat was rapidly euthanized by exsanguination from the abdominal aorta. After incision of the dorsal part, the spinal column was excised and cooled on ice. The dorsal side of the spinal column was cut off, and the spinal cord was removed from the ventral side of the spinal column to expose the dorsal root ganglia on the ventral side of the spinal column. The dorsal root ganglia (L3 to 6, right and left) were excised with tweezers, and dipped in ice-cold Leibovitz's L-15 medium (manufactured by Thermo Fisher Scientific), and the bundles of nerve fibers were removed under a stereoscopic microscope. The dorsal root ganglia from which the bundles of nerve fibers had been removed were made fine slits with ophthalmic scissors to be used as dorsal root ganglion pieces.
The dorsal root ganglion pieces were dipped in about 3 mL of a solution of collagenase A (manufactured by Roche Molecular Systems, Inc.), followed by incubation at 37° C. for 20 minutes. After the incubation, the resultant was centrifuged at 200×g at 25° C. for 5 minutes to remove a collagenase A solution corresponding to the supernatant. About 1 mL of a solution of trypsin was added thereto, followed by incubation at 37° C. for 5 minutes. Subsequently, about 3 mL of DMEM (manufactured by Thermo Fisher Scientific K.K.) containing 10% fetal bovine serum was added to the resultant, the resultant centrifuged at 200×g at room temperature for 5 minutes, and then the supernatant removed. […]
For the molecule `O=C1[O][Pt]2([NH][C@@H]3CCCC[C@H]3[NH]2)[O]C1=O` [oxaliplatin, reference compound], the “length of a neurite compared to the non-treated group” value is “significantly reduced”.

The record behind these values is patent US12545668B2, “Cyclic amine derivative as agent for promoting advillin function, and novel cyclic amine derivative and pharmaceutical use thereof” (Toray Industries, Inc., priority 2018, dated 2026).
